The record followed here is publication PMC11754443, “Synthesis, H2S releasing properties, antiviral and antioxidant activities and acute cardiac effects of nucleoside 5′-dithioacetates” (Scientific Reports, 2025).

Data set [1] has as its system anaesthetized Sprague-Dawley rats. In words: Cardiac effects by ECG and echocardiography in anaesthetized rats. The format is in vivo, rat. Particulars: for Ejection Fraction / Heart rate / PR interval / QT interval / Stroke Volume: anaesthetized SD rats, 30 s after administration, mean ± SD. How it is done:
The animals received humane care, and all experimental procedures were carried out in accordance with the “Principles of Laboratory Animal Care” by EU Directive 2010/63/EU. All experimental protocols were approved by the local Ethics Committee of University of Debrecen (25/2023/DEMÁB). Animal experiments are reported in compliance with the ARRIVE guidelines. Anesthesia was carried out using ketamine/xylazine mixture (100/10 mg/kg, i.m.). The chest was shaved and the animal was placed onto a heated pad (VisualSonics SR200, VisualSonics, Amsterdam, The Netherlands). The lateral tail vein was cannulated using a heparinized 26G i.v. cannula (BD Neoflon, BD Medical, NJ, USA). B-mode and M-mode echocardiography was carried out before and 30 s after the intravenous administration of the compounds. A high-resolution ultrasound machine (Vevo 3100 Imaging Station, VisualSonics, Amsterdam, The Netherlands) equipped with a […] transducer (MX201) was used for assessing cardiac parameters. Traces were obtained from the parasternal long axis view (PLAX). A B-mode video and an M-mode trace was recorded, and the following parameters were then offline analysed: left ventricle (LV) end-systolic and end-diastolic volume (LVESV, LVEDV, respectively) fractional shortening (FS) and ejection fraction (EF) and stroke volume (SV).
A 3-channel ECG was continuously recorded during the experiments (Vevo monitor ECG, VisualSonics, Amsterdam, The Netherlands). On the recorded ECG data, RR, PR and QT intervals, and heart rate (HR) were determined before and 30 s after the administration of the drugs, and 6 consecutive cardiac cycles were averaged for each parameter.
Statistical analyses for the in vivo studies were carried out using the GraphPad Prism 9.0 software (GraphPad Software, San Diego, CA, USA). Data distribution was assessed by the Shapiro-Wilk normality test, and paired t-test were used to determine the differences between the baseline (drug free) and endpoint (treated) parameters in each group. A multiple comparison was also carried out between the treatment groups by using one-way ANOVA with Tukey multiple comparison test. Data was shown as mean ± SD, and differences with p < 0.05 were considered significant.

Data set [2] can be described thus: DPPH radical scavenging assay. To be noted: for DPPH inhibition ratio (IR) after 30-min incubation / DPPH inhibition ratio (IR) immediately: 0.5 mM. Here is the method: DPPH is a stable free radical with a deep violet color that changes to yellow when neutralized by an electron or hydrogen radical, indicating the antioxidant activity of the sample being tested. The DPPH radical scavenging abilities were investigated following the method outlined by Shimamura et al., with minor adjustments. In this study, a cardiovascular tissue homogenate was used to induce H2S release from the dithioacetate derivatives 22 and 24, as well as GYY4137. A mixed solution of 1.2 mL of methanol and 800 µL of 0.1 M Tris-HCl buffer (pH 7.4) served as the blank. 1 mL DPPH solution was added to a mixture of methanol and 0.1 M Tris-HCl buffer (200:800 µL). After mixing, the absorbance was recorded at 517 nm on a UV-1600 PC VWR spectrophotometer (VWR, China). To avoid any potential interference from the heart extract in the assay, we measured the absorbance after adding different volumes of the extract into the mixture. These measurements were taken both immediately and after 30 min of incubation.
The DPPH antioxidant assay was performed according to the following procedures. 1 mL of DPPH solution was added to a mixture of 200 µL of the methanolic sample solution and 800 µL of 0.1 M Tris-HCl buffer (pH = 7.4). For the groups containing the extract, the extract was introduced into a mixture of the sample solution in PBS buffer, 0.1 M Tris-HCl buffer, and DPPH (200:800:1000 µL). Considering that GYY4137 produces H2S upon hydrolysis, it was introduced last following the addition of the extract into a solution of PBS buffer, 0.1 M Tris-HCl buffer, and DPPH maintained at the same ratio. The same protocol was employed for NaHS without the addition of the extract. After mixing, the absorbance was promptly recorded, after which the solutions were incubated in the dark at room temperature for 30 min before the absorbance was measured again. The test samples were prepared and assayed at varying concentrations using a 2-fold serial dilution method, starting from a concentration of 2 mM. Each investigation was performed in triplicate, and the antioxidant activity was based on the absorbance recorded at 517 nm. Ascorbic acid (AA), GYY4137, and NaHS served as positive controls, while the unmodified nucleosides were used as reference compounds.
The inhibition ratio (IR) was calculated as follows: [drawing 1] where Ac is the absorbance when methanol is added instead of the sample and As is the absorbance when the testing sample solution is added.
The antioxidant capacity was expressed as the concentration needed to achieve a 50% inhibition of the free radical (IC50). The IC50 values were calculated by plotting the percent of inhibition as a function of sample concentration.
A general note: Loss of DPPH colour is used to gauge radical scavenging.

In a further data set the test system is Calu-3 cells. In words: Cytotoxicity in Calu-3 cells (CellTiter-Glo). To be noted: Calu-3 cells, no virus, two days incubation; read-out: CC50 ± SE, cytotoxicity in Calu-3 cells. The format is cell-based, human. Here is the method: Cytotoxicity was evaluated by incubating the same two-fold serial dilutions of each compound with Calu-3 cells as above in the absence of the virus. Following two days incubation at 37 °C in 5% CO2, the cell viability was determined as above. The compound concentrations resulting in 50% reduction of cell viability (CC50) were calculated from plots of percentage of luminescence versus log10 drug concentration as above. Remdesivir was used as control in both assays.
Background: ATP-based viability assays read luminescence as a measure of living cells.

Data set [3] can be described thus: H2S release detected with amperometric H2S-specific sensor in DMEM. To be noted: DMEM with 10% FBS, 0.28-0.32 mM compound. How it is done:
The H2S-donating ability of compound 22, 24, 27, 29 and 30 (0.5 mg dissolved in 0.1 mL of DMSO) was detected in Dulbecco’s modified Eagle’s medium (DMEM) (4.9 mL) supplemented with 10% fetal bovine serum and 1% penicillin-streptomycin. The final concentrations were 0.31 mM for compound 22, 0.29 mM for compound 24, 0.28 mM for compound 27, 0.32 mM for compound 29 and 0.32 mM for compound 30, respectively. The released H2S was detected by an amperometric, H2S specific sensor (ISO-H2S-100, World Precision Instruments, Saratosa, FL, USA) connected to a WPI TBR 1025 One-Channel Free Radical Analyzer. The sensor was set to 10 nA range and poise voltage to + 150 mV. Before the measurements the sensor was polarized in phosphate buffered saline (PBS) for 12 h[19]. The H2S-release of NaHS was detected in distilled water (0.1 mg in 5 mL of H2O; 0.36 mM) and the H2S-release of GYY4137 was measured in DMEM (0.5 mg of GYY4137 in 5 mL of medium; 0.27 mM).

In data set [4] the test system is SARS-CoV-2 (strain hCoV-19/Czech Republic/NRL_6632_2/2020). In words: Anti-SARS-CoV-2 cytopathic-effect-based assay in Calu-3 cells (CellTiter-Glo). The format is cell-based. Particulars: compound added 2 h after infection, MOI 0.3, read after two days, read-out: EC50 ± SE, anti-SARS-CoV-2 activity. On the technique in general: Damage to the host cells serves as the signal in cytopathic effect assays.

Another data set has as its system SARS-CoV-2. The format is cell-based. Particulars: medium of Calu-3 cells infected 2 days at the highest compound concentration, plaque assay in Vero E6 cells.
Where [5] appears, read: anaesthetized rats, 2 mg/kg i.v.
Setting [6] is: after 30 min incubation, without extract, read-out: DPPH IC50 30 min.
Setting [7] is: measured immediately, without extract, read-out: DPPH IC50 immediately.
The mark [8] stands for this setting: after 30 min incubation, with 20 µL homogenized rat heart extract, read-out: DPPH IC50 30 min, + extract (20 µL).
Where [9] appears, read: measured immediately, with 20 µL homogenized rat heart extract, read-out: DPPH IC50 immediately, + extract (20 µL).

In general, IC50 refers to the concentration needed to halve the response being measured. A word on the CC50: it is the concentration giving 50% cytotoxicity. In general, EC50 refers to the concentration at which the effect is half-maximal.

Values joined by “and” are separate entries in the source; they are usually repeats but may differ in a detail not shown here. Identical values can stand only once. Like-named read-outs stand apart in the source and are kept apart here.

For the molecule `Nc1ncnc2c1ncn2[C@@H]1O[C@H](CO)[C@@H](O)[C@H]1O` [Adenosine, reference compound], in data set [1] (2 mg/kg i.v.), the “Ejection Fraction” value stood at 71.25±2.958%, the Heart rate is recorded as 67.38±16.46 bpm, the PR interval is 59.50 ± 10.63 ms and the QT interval came to 195.0 ± 31.69 ms. For the same molecule, the “Stroke Volume” value in data set [1] (2 mg/kg i.v.) worked out at 396.8 ± 130.4 µL. Besides, the “time within which negative chronotropic effect dissipated” value in data set [1] (setting [5]) is “approximately 60 s”. In data set [1] (rat, in vivo, iv, 2 mg/kg), the “heart block (in words)” value is “induced heart block”.

`O=C1O[C@H]([C@@H](O)CO)C(O)=C1O` [Ascorbic acid (AA), Ascorbic acid, reference compound]: the “DPPH inhibition ratio (IR) after 30-min incubation” value in data set [2] (after 30 min incubation) was 97.13%. The “DPPH inhibition ratio (IR) immediately” value in data set [2] is 97.25%. Also, the IC50 in data set [2] (setting [6]) and in data set [2] (setting [7]) was 60 µM in each case.

`C1COCCN1.COc1ccc(P(=S)(S)N2CCOCC2)cc1` (stereo not drawn) [GYY4137, reference compound]: the “DPPH inhibition ratio (IR) after 30-min incubation” value in data set [2] (after 30 min incubation) is on record as 10.63%. Further, the “DPPH inhibition ratio (IR) immediately” value in data set [2] worked out at 5.95%.

On to `[Na+].[SH-]` [NaHS, sodium hydrosulfide, reference compound], for which the “DPPH inhibition ratio (IR) after 30-min incubation” value in data set [2] (after 30 min incubation) is 90% and 90.03%. The “DPPH inhibition ratio (IR) immediately” value in data set [2] is listed as 56.14%.

Take `O=c1ccn([C@@H]2O[C@H](CO)[C@@H](O)[C@H]2O)c(=O)[nH]1` [Uridine, reference compound]: the IC50 in data set [2] (setting [6]) and in data set [2] (setting [7]) was greater than 100000 µM in each case.

As for “S-(Adenosine-5′-yl)-dithioacetic acid [Compound 24]”, in data set [1] (2 mg/kg i.v.), the “Ejection Fraction” value was 80.70±5.230%, the Heart rate is given as 120.5±29.19 bpm, the PR interval stood at 47.00 ± 3.742 ms and the QT interval came to 172.3 ± 46.85 ms. The “Stroke Volume” value in data set [1] (2 mg/kg i.v.) amounted to 416.5 ± 93.56 µL. Further, in data set [1] (setting [5]), the “duration of negative chronotropic action compared with adenosine” value is “their duration of action was longer”; the “heart block (in words)” value was “None of the new compounds (22, 24, and 34) induced complete heart block or pauses”. The CC50 in the data set on Calu-3 cells is roughly 1000 µM. In data set [3], the “persistence of measurable H2S release” value is “remained at a measurable level even after two hours” and the “time at which H2S gas release reached the maximum level” value lay within 10 to 20 min. Also, the IC50 in data set [2] (setting [8]) is 1620 µM. Further, the IC50 in data set [2] (setting [6]) came out at 2580 µM. For the same molecule, in data set [2] (setting [9]), the IC50 came out at 2660 µM. Further, in data set [2] (setting [7]), the IC50 came out at 3540 µM. In data set [4], the EC50 worked out at 173 ± 24 µM. This molecule registered an SARS-CoV-2 titer reduction with SARS-CoV-2 of 0 log10 PFU/mL.

In the case of “S-(Cytidine-5′-yl)-dithioacetic acid [Compound 29]”, in the data set with Calu-3 cells, the CC50 is greater than 1000 µM. In data set [3], the “persistence of measurable H2S release” value is listed as “remained at a measurable level even after two hours” and the “time at which H2S gas release reached the maximum level” value is 10 to 20 min. In data set [4], the EC50 is greater than 1000 µM. In the data set on SARS-CoV-2, this molecule displayed an SARS-CoV-2 titer reduction of 0.13 log10 PFU/mL.

With “S-(Guanosine-5′-yl)-dithioacetic acid [Compound 27]”, the CC50 in the data set with Calu-3 cells is greater than 1000 µM. Further, in data set [3], the “persistence of measurable H2S release” value is recorded as “remained at a measurable level even after two hours” and the “time at which H2S gas release reached the maximum level” value lay within 10 to 20 min. For the same molecule, the EC50 in data set [4] worked out at 158 ± 34 µM. Further, the SARS-CoV-2 titer reduction in the data set with SARS-CoV-2 turned out to be 0.38 log10 PFU/mL.

Turning to “S-(Thymidine-5′-yl)-dithioacetic acid [Compound 30]”, the CC50 in the data set on Calu-3 cells turned out to be 764 ± 82 µM. Also, in data set [3], the “persistence of measurable H2S release” value is “remained at a measurable level even after two hours” and the “time at which H2S gas release reached the maximum level” value lay within 10 to 20 min. In addition, the EC50 in data set [4] stood at 621 ± 181 µM. The same molecule showed an SARS-CoV-2 titer reduction in the data set on SARS-CoV-2 of 0.01 log10 PFU/mL.

With “S-(Uridine-5′-yl)-dithioacetic acid [Compound 22]”, in data set [1] (2 mg/kg i.v.), the “Ejection Fraction” value was 68.70±4.226%, the Heart rate was 172.3±19.45 bpm, the PR interval came out at 51.2 ± 7.530 ms and the QT interval is 122.2 ± 10.73 ms. In addition, the “Stroke Volume” value in data set [1] (2 mg/kg i.v.) is 344.6 ± 81.32 µL. Also, the “heart block (in words)” value in data set [1] (setting [5]) was “None of the new compounds (22, 24, and 34) induced complete heart block or pauses”. Also, the CC50 in the data set with Calu-3 cells was greater than 1000 µM. Moreover, in data set [3], the “persistence of measurable H2S release” value is reported as “remained at a measurable level even after two hours” and the “time at which H2S gas release reached the maximum level” value was 10 to 20 min. The IC50 in data set [2] (setting [8]) worked out at 1570 µM. The IC50 in data set [2] (setting [6]) was determined as 3630 µM. Besides, the IC50 in data set [2] (setting [9]) was found to be 3520 µM. For the same molecule, the IC50 in data set [2] (setting [7]) amounted to 5560 µM. Besides, the EC50 in data set [4] was greater than 1000 µM. The same molecule yielded an SARS-CoV-2 titer reduction in the data set with SARS-CoV-2 of 0.02 log10 PFU/mL.
